Patent publication US20200305483A1, “SOURNESS ENHANCERS COMPRISING A CYCLOHEXANECARBOXYLIC ACID” (Firmenich SA, priority 2017, published 2020)

Tests used:
Format in all cases: in vivo
[1] = Paired comparison study (2-AFC) of sourness, model system comprising malic acid; settings: 50 ppm in 5% sucrose / 0.05% malic acid, pH 3.1 (±0.02), 95% confidence level
Experimental: A sucrose (5% by weight) and malic acid (0.05% by weight) solution was prepared and used for evaluating the sourness enhancement effect of a cyclohexanecarboxylic acid having the structure: The evaluation consisted of (i) a test solution of 50 ppm of the cyclohexanecarboxylic acid in the sucrose/malic acid solution; and (ii) a control solution comprising the sucrose/malic acid solution only. In a repeat experiment using 41 trained subjects, 41 subjects were asked to select the more sour sample in each pair, in a paired comparison study (2-AFC). The pH of the samples was 3.1 (±0.02). 28 out of 41 subjects found the sample containing compound I at 50 ppm was more sour at a 95% confidence level.

[2] = Paired comparison of sourness, model system comprising tartaric acid; settings: 50 ppm in 5% sucrose / 0.05% tartaric acid, pH 2.9 (±0.02), 95% confidence level
Experimental: A sucrose (5% by weight) and tartaric acid (0.05% by weight) solution was prepared and used for evaluating the sourness enhancement effect of a cyclohexanecarboxylic acid having the structure: The evaluation consisted of (i) a test solution of 50 ppm of the cyclohexanecarboxylic acid in the sucrose/tartaric acid solution; and (ii) a control solution comprising the sucrose/tartaric acid solution only. 41 subjects were asked to select out more sour sample in each pair. The pH of the samples was 2.9 (±0.02).

[3] = Sensory evaluation of sweet, sour and astringent intensities, model system comprising citric acid
Experimental: A sucrose (5% by weight), and citric acid (0.05% by weight) solution was prepared and used for evaluating the sourness enhancement effect of a cyclohexanecarboxylic acid having the structure: The evaluation consisted of (i) a test solution of 50 ppm of the cyclohexanecarboxylic acid in the sucrose/citric acid solution; and (ii) a control solution comprising the sucrose/citric acid solution only. 28 trained panelists were asked to evaluate the sweet, sour and astringent intensities for each sample on a linear scale from 0 to 10, where 0 correlated with “no taste” and 10 correlated with “too strong to taste”.

[4] = Paired comparison of sourness, model system comprising citric and lactic acid; settings: 50 ppm in 5% sucrose / 0.07% citric acid / 0.09% lactic acid, pH 2.9 (±0.02), 95% confidence level
Experimental: A sucrose (5% by weight), citric acid (0.07% by weight), and lactic acid (0.09% by weight) solution was prepared and used for evaluating the sourness enhancement effect of a cyclohexanecarboxylic acid having the structure: The evaluation consisted of (i) a test solution of 50 ppm of the cyclohexanecarboxylic acid in the sucrose/citric-lactic acid solution; and (ii) a control solution comprising the sucrose/citric-lactic acid solution only. 41 subjects were asked to select out more sour sample in each pair. The pH of the samples was 2.9 (±0.02).

[5] = Sensory evaluation of sweet, sour and astringent intensities, model system comprising malic acid
Experimental: A sucrose (5% by weight) and malic acid (0.05% by weight) solution was prepared and used for evaluating the sourness enhancement effect of a cyclohexanecarboxylic acid having the structure: The evaluation consisted of (i) a test solution of 50 ppm of the cyclohexanecarboxylic acid in the sucrose/malic acid solution; and (ii) a control solution comprising the sucrose/malic acid solution only. 27 trained panelists were asked to evaluate the sweet, sour and astringent intensities for each sample on a linear scale from 0 to 10, where 0 corresponded to “no taste” and 10 corresponded to “too strong to taste”.

[6] = 50 ppm (by weight) in sucrose/citric acid solution, versus reference sample
[7] = 50 ppm (by weight) in sucrose/malic acid solution, versus reference sample

Structure (SMILES): O=C(/C=C/c1ccc(O)c(O)c1)O[C@@H]1C[C@](O)(C(=O)O)C[C@@H](O)[C@H]1O [compound I]
- subjects who found the sample containing the compound more sour [1]: 28 out of 41 subjects
- subjects who found that adding the compound increased sourness [2]: 28 out of 41 subjects
- change of astringency intensity [3, 6]: 28.0%
- decrease of sweetness intensity [3, 6]: 11.6%
- astringency intensity (tested sample) ([3]; 50 ppm in 5% sucrose / 0.05% citric acid, 28 trained panelists, scale 0 to 10, reference sample 2.5): 3.2
- sweetness intensity (tested sample) ([3]; 50 ppm in 5% sucrose / 0.05% citric acid, 28 trained panelists, scale 0 to 10, reference sample 4.3, 95% confidence level): 3.8
- sourness intensity, change versus reference sample ([3]; 50 ppm in 5% sucrose / 0.05% citric acid, pH value also unchanged): Without changing
- subjects who found that adding the compound increased sourness [4]: 29 out of 41 subjects
- enhancement of astringency intensity [5, 7]: 24.0%
- enhancement of sourness intensity [5, 7]: 22.5%
- sourness intensity (tested sample) ([5]; 50 ppm in 5% sucrose / 0.05% malic acid, 27 trained panelists, linear scale 0 to 10, reference sample 4.0, 95% confidence level): 4.9
- astringency intensity (tested sample) ([5]; 50 ppm in 5% sucrose / 0.05% malic acid, 27 trained panelists, scale 0 to 10, reference sample 2.5, 99% confidence level): 3.1
- sweet intensity, change versus reference sample ([5]; 50 ppm in 5% sucrose / 0.05% malic acid, pH value also unchanged): Without changing
